Calls of active or inactive are those of the source. The rule behind the calls is not given here.
Experiments:
Canis familiaris [1] = assay: Antiarrhythmic activity in iv dosed mongrel dog assessed as reduction in ouabain-induced ventricular arrhythmia by electrocardiographic analysis; format: functional; details: Canis lupus familiaris, Heart; for minimal effective dose: read-out: MED
Canis familiaris [2] = species on record: Canis familiaris; assay: Antiarrhythmic activity in mongrel dog Harris two-stage coronary ligation model assessed as reduction in ectopic beats by electrocardiographic analysis; format: functional; details: Canis lupus familiaris, Heart; for minimal effective dose: read-out: MED
Canis familiaris [3] = assay: Antiarrhythmic activity in iv dosed mongrel dog assessed as reduction in ouabain-induced ventricular arrhythmia measured as duration of action at MED by electrocardiographic analysis; format: functional, Canis lupus familiaris, Heart
Canis familiaris [4] = species on record: Canis familiaris; assay: Antiarrhythmic activity in mongrel dog Harris two-stage coronary ligation model assessed as reduction in ectopic beats measured as duration of action at MED by electrocardiographic analysis; format: functional, Canis lupus familiaris, Heart
Heart = assay: Antiarrhythmic activity in rabbit heart assessed as reduction in aconitine-induced ventricular arrhythmia at 40 mg/l after 30 mins by electrocardiographic analysis; format: functional, tissue-based; details: Oryctolagus cuniculus
Canis familiaris [5] = species on record: Canis familiaris; assay: Toxicity in mongrel dog Harris two-stage coronary ligation model; format: organism-based, Canis lupus familiaris; details: in vivo

CCN(CC)CCCN1CCC(O)(c2ccccc2)C(C(=O)c2ccccc2)C1 (stereo not drawn)
minimal effective dose (Canis familiaris [1]): 12.5 mg/kg
minimal effective dose (Canis familiaris [2]): 7.5 mg/kg
Time (Canis familiaris [3]): 32 min
Time (Canis familiaris [4]): 16 min

O=C(c1ccccc1)C1CN(CCCN2CCCCC2)CCC1(O)c1ccccc1 (stereo not drawn)
minimal effective dose (Canis familiaris [1]): 10 mg/kg
Activity (Canis familiaris [2]): inactive
Activity (Heart): Active
Time (Canis familiaris [3]): 15 min

Br.CN(C)CCCN1CC=C2C(=C(c3ccccc3)c3ccccc32)C1.O
minimal effective dose (Canis familiaris [1]): 15 mg/kg
Activity (Canis familiaris [2]): inactive
Activity (Heart): Active
Time (Canis familiaris [3]): 40 min

Br.CCN(CC)CCCN1CC=C2C(=C(c3ccccc3)c3ccccc32)C1.O
minimal effective dose (Canis familiaris [1]): 20 mg/kg
minimal effective dose (Canis familiaris [2]): 15 mg/kg
Activity (Heart): Active
Time (Canis familiaris [3]): 35 min
Time (Canis familiaris [4]): 10 min

Br.C1=C2C(=C(c3ccccc3)c3ccccc32)CN(CCCN2CCCCC2)C1.O
minimal effective dose (Canis familiaris [1]): 10 mg/kg
minimal effective dose (Canis familiaris [2]): 7.5 mg/kg
Activity (Heart): Active
Time (Canis familiaris [3]): 35 min
Time (Canis familiaris [4]): 12 min

Br.C1=C2C(=C(c3ccccc3)c3ccccc32)CN(Cc2ccccc2)C1
minimal effective dose (Canis familiaris [1]): 15 mg/kg
Activity (Canis familiaris [2]): inactive
Activity (Heart): Active
Time (Canis familiaris [3]): 17 min

CN(C)CCCN1CCC(O)(c2ccccc2)C(C(=O)c2ccccc2)C1 (stereo not drawn)
Activity (Canis familiaris [1]): inactive
Activity (Heart): Active

CN(C)CCN1CCC(O)(c2ccccc2)C(C(=O)c2ccccc2)C1 (stereo not drawn)
Activity (Canis familiaris [1]): inactive
Activity (Heart): Active

CN(C)CCCN1CC[C@H]2c3ccccc3[C@@H](c3ccccc3)[C@H]2C1.Cl.O (relative stereo)
minimal effective dose (Canis familiaris [1]): 10 mg/kg
minimal effective dose (Canis familiaris [2]): 10 mg/kg
Activity (Heart): Active
Time (Canis familiaris [3]): 15 min
Time (Canis familiaris [4]): 17.5 min

CCN(CC)CCCN1CC[C@H]2c3ccccc3[C@@H](c3ccccc3)[C@H]2C1.Cl.O (relative stereo)
minimal effective dose (Canis familiaris [1]): 20 mg/kg
minimal effective dose (Canis familiaris [2]): 12.5 mg/kg
Activity (Heart): Active
Time (Canis familiaris [3]): 15 min
Time (Canis familiaris [4]): 10 min

Cl.O.c1ccc([C@@H]2c3ccccc3[C@@H]3CCN(CCCN4CCCCC4)C[C@H]23)cc1 (relative stereo)
minimal effective dose (Canis familiaris [1]): 15 mg/kg
Activity (Canis familiaris [2]): inactive
Time (Canis familiaris [3]): 15 min

Br.CCN(CC)CCN1CC[C@H]2c3ccccc3[C@@H](c3ccccc3)[C@H]2C1.O (relative stereo)
minimal effective dose (Canis familiaris [1]): 10 mg/kg
minimal effective dose (Canis familiaris [2]): 12.5 mg/kg
Activity (Heart): Active
Time (Canis familiaris [3]): 25 min
Time (Canis familiaris [4]): 12.5 min

Br.CCN(CC)CCCN1CC[C@H]2c3ccccc3[C@H](c3ccccc3)[C@H]2C1.O (relative stereo)
minimal effective dose (Canis familiaris [1]): 15 mg/kg
Time (Canis familiaris [3]): 19 min

Cl.O.c1ccc([C@H]2c3ccccc3[C@@H]3CCN(CCCN4CCCCC4)C[C@H]23)cc1 (relative stereo)
minimal effective dose (Canis familiaris [1]): 10 mg/kg
Activity (Canis familiaris [5]): Toxic
Activity (Heart): Active
Time (Canis familiaris [3]): 30 min

Br.CN(C)CCN1CC[C@H]2c3ccccc3[C@H](c3ccccc3)[C@H]2C1 (relative stereo)
minimal effective dose (Canis familiaris [1]): 20 mg/kg
Activity (Canis familiaris [2]): inactive
Activity (Heart): Active
Time (Canis familiaris [3]): 17 min

Br.c1ccc([C@@H]2c3ccccc3[C@@H]3CCNC[C@H]23)cc1 (relative stereo)
minimal effective dose (Canis familiaris [1]): 17.5 mg/kg
minimal effective dose (Canis familiaris [2]): 15 mg/kg
Activity (Heart): Active
Time (Canis familiaris [3]): 15 min
Time (Canis familiaris [4]): 12.5 min

CCN(CC)CCN1CC[C@H]2c3ccccc3[C@H](c3ccccc3)[C@H]2C1 (relative stereo)
Activity (Canis familiaris [1]): inactive
Activity (Heart): Active

CN(C)CCCN1CC[C@H]2c3ccccc3[C@H](c3ccccc3)[C@H]2C1 (relative stereo)
Activity (Canis familiaris [1]): inactive
Activity (Heart): Active

c1ccc([C@H]2c3ccccc3[C@@H]3CCNC[C@H]23)cc1 (relative stereo)
Activity (Canis familiaris [1]): inactive
Activity (Heart): Active

CC(C)N(CCC(C(N)=O)(c1ccccc1)c1ccccn1)C(C)C.O=P(O)(O)O (stereo not drawn) [DISOPYRAMIDE PHOSPHATE]
minimal effective dose (Canis familiaris [1]): 6.6 mg/kg
minimal effective dose (Canis familiaris [2]): 7 mg/kg
Time (Canis familiaris [3]): >30 min
Time (Canis familiaris [4]): 23 min

C=C[C@H]1CN2CC[C@H]1C[C@@H]2[C@@H](O)c1ccnc2ccc(OC)cc12 [QUINIDINE]
minimal effective dose (Canis familiaris [1]): 7.5 mg/kg
minimal effective dose (Canis familiaris [2]): 12.8 mg/kg
Activity (Heart): Active
Time (Canis familiaris [3]): >30 min
Time (Canis familiaris [4]): 23 min
